The test addresses T1, SOD1^A4V (Homo sapiens, UniProt P00441, A5V).
T1 construct: The full-length constructs of SOD1-wild type (aa: 1–145) and its corresponding SOD1 disease mutant, SOD1^A4V; His-tag (cleaved yes); made in house; host or cells: E. coli BL21 DE3
Nature of the test: Thioflavin T (ThT) fluorescence aggregation assay, SOD1^A4V. The settings on record: for kapp / t50 / tlag: 37 °C, reduced conditions. It is filed as biochemical. The protocol:
Following the co-crystal structure elucidation of SOD1 in complex with PB, we wanted to identify the effect of PB on the aggregation of SOD1^WT and its disease mutant, SOD1^A4V. A comprehensive analysis of the anti-aggregation propensity of PB was performed using a ThT-based fluorescence assay and analytical size-exclusion based chromatography (SEC) assay. We used Thioflavin-T, a β-sheet formation reporter, to assess the aggregation of SOD1. Time lag (tlag) is a kinetic parameter used to evaluate the lag phase of fibrillation. Fibril elongation was used to evaluate the rate of β sheet formation. […] Similar effects on lag time are also observed for SOD1^A4V. […] Moreover, ThT-based aggregation assays were also performed for the PB site-specific mutants, SOD1^A123F, SOD1^K9F, SOD1^L42R, and SOD1^G10P (S4a, S4c, S4e and S4g Fig). As expected based on the abovementioned MST results, the aggregation analysis is inconclusive as these mutants, which correspond to the ligand binding residues, cause a loss of protein-ligand interactions.
Fig 6 Aggregation studies of metallated and reduced SOD1^WT and SOD1^A4V on treatment with PB. ThT fluorescence was monitored during the co-incubation of metallated SOD1^WT (50 μM) (a) or SOD1^A4V (50 μM) (b) with PB at 1:30 molar ratio at 37 °C with continuous shaking, under reduced conditions. The values were normalized to the maximal ThT intensity elicited by SOD1^WT or SOD1^A4V and fitted to a Boltzmann sigmoidal equation. The control and PB-treated species were compared to analyse the effects of PB on the aggregation of SOD1^WT and SOD1^A4V. Error bars indicate the standard deviation. Analytical SEC of metallated SOD1^WT (50 μM) (c) and SOD1^A4V (50 μM) (d) with PB were analyzed under reducing conditions before and after 24 hrs and 48 hrs incubation at 37 °C. The first peak eluting at the volume was denoted as oligomerized SOD1^WT/SOD1^A4V (L). The second, third, and fourth peaks were calculated as trimer (T), dimer (D), and monomer (M) species of SOD1^WT/SOD1^A4V running at 14.5 ml, 15.7 ml, and 16.5 ml, respectively. […] The monomer (M), dimer (D), trimer (T), and large aggregate (L) species are shown as green, purple, red, and black dotted lines, respectively. All the experiments were performed for n = 3 biological replicates.
Fig 7 Aggregation studies of de-metallated and reduced SOD1^WT and SOD1^A4V on treatment with PB. ThT fluorescence was monitored during the co-incubation of de-metallated SOD1^WT (50 μM) (a) or SOD1^A4V (50 μM) (b) with PB at 1:30 molar ratio at 37 °C with continuous shaking, under reduced conditions. The values were normalized to the maximal ThT intensity elicited by SOD1^WT or SOD1^A4V and fitted to a Boltzmann sigmoidal equation. The control and PB-treated species were compared to analyse PB’s effects on the aggregation of SOD1^WT and SOD1^A4V. Analytical SEC of de-metallated SOD1^WT (50 μM) (a) and SOD1^A4V (50 μM) (b) with PB were analysed under reducing conditions before and after 24 hrs and 48 hrs incubation at 37 °C. The first peak eluting at the volume was denoted as oligomerized SOD1^WT (L) runs at 9.2 ml. The second, third, and fourth peaks were calculated as trimer (T), dimer (D), and monomer (M) species of SOD1^WT/SOD1^A4V running at 14.5 ml, 15.7 ml, and 16.5 ml, respectively. […] In the case of SOD1^A4V, PB eliminates the formation of large aggregates compared to the control (48hrs-EC, EC represents control with EDTA). The monomer (M), dimer (D), trimer (T), and large aggregate (L) species are shown as green, purple, red, and black dotted lines, respectively. All the experiments were performed for n = 3 biological replicates.
Aggregation assays were performed on SOD1^WT, the disease mutant A4V, and ligand-binding site-specific mutants to check the anti-aggregation activity of PB on the former. […] The ThT assay for the SOD1 aggregation was carried out per the recently published protocol. […]

Setting [1] is: De-metallated (5 mM EDTA) SOD1^A4V 50 μM with PB at 1:30 molar ratio.
The mark [2] stands for this setting: Metallated SOD1^A4V 50 μM with PB at 1:30 molar ratio.

The structures appear in SMILES notation.

T1 sequence (P00441 whole entry A5V): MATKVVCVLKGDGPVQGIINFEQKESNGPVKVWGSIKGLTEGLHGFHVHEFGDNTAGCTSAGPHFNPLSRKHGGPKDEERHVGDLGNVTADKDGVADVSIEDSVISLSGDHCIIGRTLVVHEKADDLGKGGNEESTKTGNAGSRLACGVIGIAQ

Turning to `CCCC[C@H](C)/C=C(C)/C=C/C(=O)O` [PB, (S, 2E, 4E)-4,6-dimethyldeca-2,4-dienoic acid], under setting [1], the kapp was 0.05 h⁻¹, the t50 was found to be 13.57 h and the tlag is 13.55 h. In addition, under setting [2], the kapp came to 0.07 h⁻¹, the t50 was 10.45 h and the tlag stood at 10.44 h. Moreover, the “ThT signal of SOD1^A4V aggregation” value (Metallated SOD1^A4V 50 μM, PB 1:30, versus control) is on record as “drastic reduction in the ThT signal”.

Values taken from publication PMC10917278, “Structural insights into the modulation Of SOD1 aggregation By a fungal metabolite Phialomustin-B: Therapeutic potential in ALS” (PLOS ONE, 2024).
